Test results published in ChEMBL document CHEMBL1201862, “PubChem BioAssay data set” (2004).
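Tested at 5 concentrations; 48 h exposure; 96-well plates; endpoints linearly interpolated, else capped at highest concentration. The concentration for 50% growth inhibition is given as GI50.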 Active and inactive are the calls of the source. No stated cut-off is given here; in the data, active = GI50 up to about 1.1 µM and inactive = higher.

How the values were obtained:
Test in all cases: inhibition of tumour cell growth, NCI panel, 48 h
BT-549 = system: BT-549
CCRF-CEM = system: CCRF-CEM
HCT-116 = system: HCT-116
IGROV-1 = system: IGROV-1
K562 = system: K562
KM12 = system: KM12
MDA-MB-231 = system: MDA-MB-231
Malme-3M = system: Malme-3M
NCI-H460 = system: NCI-H460
OVCAR-3 = system: OVCAR-3
PC-3 = system: PC-3
SF-539 = system: SF-539
SK-MEL-28 = system: SK-MEL-28
SK-MEL-2 = system: SK-MEL-2
SK-MEL-5 = system: SK-MEL-5
SN12C = system: SN12C
U-251 = system: U-251
UACC-257 = system: UACC-257
UACC-62 = system: UACC-62
UO-31 = system: UO-31

Measured: GI50

Cc1cc(Cl)cc2c1NC(=O)C2(O)CC(=O)c1ccco1 (stereo not given)
inactive: BT-549 > 100 µM | CCRF-CEM 38.7 µM | HCT-116 > 77.3 µM | IGROV-1 99.3 µM | K562 27.1 µM | KM12 > 75.9 µM | MDA-MB-231 35.3 µM | Malme-3M > 48.5 µM | NCI-H460 > 100 µM | OVCAR-3 52.4 µM | PC-3 > 100 µM | SF-539 > 100 µM | SK-MEL-28 > 70 µM | SK-MEL-2 > 85.9 µM | SK-MEL-5 22.2 µM | SN12C > 85.1 µM | U-251 > 90.6 µM | UACC-257 45.9 µM | UACC-62 31 µM | UO-31 > 100 µM
